Experimental data: patent US4216128A, “Enkephalin analogues” (American Home Products Corporation, priority 1979, dated 1980)
Non-standard residues stand in square brackets, D forms with d. Residues, ends and D or L forms follow the SMILES beside them.

Assays:
CF-1 mice = assay: phenylbenzoquinone induced writhing test (analgesia); assay type: in vivo
opiate receptor [1] = assay: relative displacement potency, procedure of Chang et al.; assay type: binding; settings: relative to morphine
[2] = peripheral administration; cited from earlier work
[3] = intravenous administration; cited from earlier work
rats = settings: injection in the brain ventricle, fully reversible by naloxone; cited from earlier work
mouse vas deferens = settings: cited from earlier work
guinea pig ileum = settings: cited from earlier work
opiate receptor [4] = settings: brain homogenates; cited from earlier work
[5] = Coy et al.; cited from earlier work
[6] = intracerebroventricular; cited from earlier work

CN[C@@H](Cc1ccc(O)cc1)C(=O)N[C@H](CS)C(=O)NCC(=O)N(C)[C@@H](Cc1ccccc1)C(=O)N[C@H](CC(N)=O)C(N)=O [Example 4, N-Methyl-L-tyrosyl-D-cysteinyl-glycyl-N-methyl-L-phenylalanyl-D-asparagine amide]
percent analgesia after oral administration (CF-1 mice; oral dose of 50 mg/kg, 30 minutes): 10%
ED50 (analgesia, absence of writhing) (CF-1 mice; subcutaneous administration, at 15 minutes, mice): 0.64 (0.29-1.4) mg/kg
relative displacement potency (opiate receptor [1]): two

CSCC[C@H](NC(=O)[C@H](Cc1ccccc1)NC(=O)CNC(=O)[C@@H](C)NC(=O)[C@@H](N)Cc1ccc(O)cc1)C(N)=O [Tyr-D-Ala-Gly-Phe-Met-amide]
activity when administered peripherally [2]: inactive

CSCC[C@@H](NC(=O)[C@@H](N)Cc1ccc(O)cc1)C(=O)NCC(=O)N[C@@H](Cc1ccccc1)C(=O)N1CCC[C@H]1C(N)=O [Tyr-D-Met-Gly-Phe-Pro-NH2] (H-Y[dM]GFP-NH2)
antinociceptive potency relative to morphine [3]: 5.5 times more potent than morphine

CC(C)C[C@H](NC(=O)[C@H](Cc1ccccc1)NC(=O)CNC(=O)CNC(=O)[C@@H](N)Cc1ccc(O)cc1)C(=O)O [leucine-enkephalin, H-Tyr-Gly-Gly-Phe-Leu-OH]
analgesia (rats): profound analgesia

CSCC[C@H](NC(=O)[C@H](Cc1ccccc1)NC(=O)CNC(=O)CNC(=O)[C@@H](N)Cc1ccc(O)cc1)C(=O)O [methionine-enkephalin, H-Tyr-Gly-Gly-Phe-Met-OH]
block of electrically evoked contractions (mouse vas deferens): block electrically evoked contractions
analgesia (rats): profound analgesia
block of electrically evoked contractions (guinea pig ileum): block electrically evoked contractions
inhibition of stereospecific receptor binding of 3H-naloxone (opiate receptor [4]): inhibit

D-Met^5 enkephalin
activity relative to Met enkephalin [5]: one tenth

Tyr-D-Ala-Gly-Phe-D-Leu
activity when administered intracerebroventricularly [6]: activity
